Experimental data as given in patent US20060089335A1, “Compositions and methods for enhancing cognitive function and synaptic plasticity” (priority 2003, published 2006).

Columns and labels:
NMDAR = test: voltage-dependence of NMDAR Mg^2+ block, NMDA currents evoked by glutamate iontophoresis; assay type: cell-based, rat
Text: Analysis of voltage-dependence of NMDAR Mg^2+ block. For studying the voltage-dependence of NMDAR Mg^2+ block, NMDA currents were evoked by local application of glutamate using the high-speed iontophoresis technique (Murnick et al., 2002). The current traces for each cell were normalized to their value at +40 mV membrane potential. The voltage dependency of NMDA currents was modeled using the Woodhull function (Woodhull, 1973). The NMDA channel conductance in the presence and absence of Mg^2+ was related according to the relationship: [formula] • where KMg is the voltage-independent affinity of Mg^2+ for the channel (0 mV membrane potential), δ is the electrical distance of the Mg^2+ binding site in the membrane field, E is membrane potential, and z is the valence of the blocking ion. RT/F was 25.4 mV (21° C.).
Although the biophysics of Mg^2+ block have been studied extensively (Mayer et al., 1984; Nowak et al., 1984; Jahr and Stevens, 1990), we wished to determine precisely the behavior of the Mg^2+ block at near-physiologic concentrations. […] We evoked NMDA currents by iontophoretic application of glutamate to a putative single bouton identified by FM 1-43 labeling and recorded under whole cell patch clamp in the presence of the AMPAR blocker, NBQX (10 μM). […] (Renger et al., 2001).

[1] = target: NMDA receptors (NR2B-containing) (Rattus norvegicus, UniProt P35439+Q00960); test: evoked NMDA currents ([…]), double-perforated patch; assay type: cell-based
NMDA receptors (NR2B-containing), sequence (Q00960 27-1482, other chains not shown): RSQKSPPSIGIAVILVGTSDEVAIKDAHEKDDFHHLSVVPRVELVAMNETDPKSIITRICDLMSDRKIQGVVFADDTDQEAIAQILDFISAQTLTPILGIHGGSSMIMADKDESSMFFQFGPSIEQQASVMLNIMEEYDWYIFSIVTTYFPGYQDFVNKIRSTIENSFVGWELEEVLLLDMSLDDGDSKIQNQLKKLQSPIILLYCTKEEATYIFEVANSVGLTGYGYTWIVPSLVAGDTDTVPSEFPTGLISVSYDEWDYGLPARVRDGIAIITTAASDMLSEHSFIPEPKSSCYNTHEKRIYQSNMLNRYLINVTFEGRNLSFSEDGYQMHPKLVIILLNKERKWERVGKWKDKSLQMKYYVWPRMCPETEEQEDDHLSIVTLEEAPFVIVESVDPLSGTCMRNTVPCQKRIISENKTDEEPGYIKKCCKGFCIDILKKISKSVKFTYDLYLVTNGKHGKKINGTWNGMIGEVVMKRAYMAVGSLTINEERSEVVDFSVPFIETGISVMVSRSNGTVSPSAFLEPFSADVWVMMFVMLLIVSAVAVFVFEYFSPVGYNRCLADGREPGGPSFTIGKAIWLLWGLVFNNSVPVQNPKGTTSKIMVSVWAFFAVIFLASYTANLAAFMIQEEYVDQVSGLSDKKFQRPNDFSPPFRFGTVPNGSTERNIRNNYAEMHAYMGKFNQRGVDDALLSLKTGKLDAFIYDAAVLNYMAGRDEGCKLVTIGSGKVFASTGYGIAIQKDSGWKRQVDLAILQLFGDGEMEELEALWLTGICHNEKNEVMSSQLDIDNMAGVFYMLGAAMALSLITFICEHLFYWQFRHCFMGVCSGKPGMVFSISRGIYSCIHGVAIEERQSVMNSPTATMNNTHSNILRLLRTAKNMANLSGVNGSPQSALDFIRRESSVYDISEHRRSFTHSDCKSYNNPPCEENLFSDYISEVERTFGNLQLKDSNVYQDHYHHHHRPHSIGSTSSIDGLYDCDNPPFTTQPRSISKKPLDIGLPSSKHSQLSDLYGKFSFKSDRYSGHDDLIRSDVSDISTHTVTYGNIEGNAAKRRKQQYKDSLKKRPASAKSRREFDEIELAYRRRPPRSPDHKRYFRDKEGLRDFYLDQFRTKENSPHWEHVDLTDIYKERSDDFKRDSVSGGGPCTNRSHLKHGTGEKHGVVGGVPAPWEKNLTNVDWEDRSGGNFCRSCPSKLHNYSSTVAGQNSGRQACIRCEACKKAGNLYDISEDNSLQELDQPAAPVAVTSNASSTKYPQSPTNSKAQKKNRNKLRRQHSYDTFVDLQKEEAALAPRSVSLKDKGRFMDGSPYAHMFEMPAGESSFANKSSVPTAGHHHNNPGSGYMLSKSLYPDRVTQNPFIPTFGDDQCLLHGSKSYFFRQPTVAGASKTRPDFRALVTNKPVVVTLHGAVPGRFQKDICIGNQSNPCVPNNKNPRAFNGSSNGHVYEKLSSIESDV
Method: Electrophysiology. Dual whole cell perforated patch clamp recordings were made on two interconnected cultured hippocampal pyramidal neurons. Perforated patch pipettes were front-filled with a solution containing (in mM): CsOH, 127; D-gluconic acid, 127; CsCl, 4; HEPES, 10; NaCl, 8; EGTA, 0.4; pH was adjusted to 7.25 with CsOH, and then back-filled with the same solution containing […] amphotericin B (Sigma, St. Louis, Mo.). Extracellular solution contained (in mM): NaCl, 145; KCl, 3; glucose, 15; HEPES, 10; MgCl2, 0.8-1.2; CaCl2, 1.2; 0.005 glycine (Sigma), 0.05 picrotoxin (Sigma); pH adjusted to 7.4 with NaOH. MgCl2 concentration was matched to its concentration in culture medium. In experiments where effects of drugs on neuronal activity were quantified (FIG. 4D), recordings were done in culture medium (with HEPES replacing bicarbonate/CO2 to maintain pH). All experiments were performed at room temperature. For assaying synaptic connectivity, each neuron was stimulated by 1 ms step depolarization from −70 to +30 mV in voltage-clamp mode. Only neurons with monosynaptic connections were used. […] Recordings with access resistance>20 MΩ or that varied substantially were rejected from analysis.
We hypothesized that one target may be the number and properties of NMDA receptors at individual synapses.

[2] = rat, in vivo
Method: Determination of [Mg^++] in CSF. Total Mg^++ levels in CSF in control and Mg^++-treated rats were determined by a colorimetric method with xylidyl blue (Anilytics Incorporated, MD) (Thomas, L. (1998). Clinical Laboratory diagnostics. 1st ed. Francfurt: TH-Books Verlagsgesellschaft, 231-41.)
Behavior test: Novel object recognition. The subjects were 20 experimentally naive, female, Sprague-Dawley rats (Charles River), 1 year old at the beginning of the experiment. They were housed two per cage with continuous access to food and water under a 12:12 light-dark cycle, with light onset at 8:00 a.m. Rats in the Mg^++-treated group received drinking water containing 6 mg/kg/day MgCl2 for 4 months before experiments.
We noted that the extracellular concentration Mg^+ in the CSF of a normal human brain is about 1.2 mM, the same concentration at which we obtained the maximum synaptic plasticity in vitro (FIG. 8B). We tested whether increasing Mg^++ concentration might also lead to enhanced synaptic plasticity in rats in vivo. Since Mg^++ is an essential mineral, normally obtained only by ingestion, we added a low quantity of Mg^++ (˜6 mg/kg/day) to drinking water in attempt to raise CSF Mg^++ concentration. This amount was proportional to that recommended by the FDA as a daily food supplement for humans. Two groups of adult Sprague-Dawley rats (8 months) were used as experimental populations. […]

NR2A = test: quantitative Western blotting of hippocampal homogenate; settings: rat, in vivo
Method: (§1) Quantitative Western blotting. Samples of hippocampal homogenate (10 ug/sample) were resolved on polyacrylamide gels, transferred to PVDF, and probed with anti-NR1 (Chemicon), NR2A (Upstate) or NR2B (Santa Cruz Biotech), GluR1 (Chemicon), Synapsin1 (American Qualex), or PSD-95 (Upstate) antibody followed by the appropriate secondary antibody coupled to horseradish peroxidase (1:10,000, Santa Cruz Biotech) in Tris-buffered saline (pH 7.3) containing 5% dry milk and 0.1% Tween (BioRad). Visualization of immunoreactive bands was achieved by enhanced chemiluminescence (Perkin Elmer Biosciences) and captured on autoradiography film (Kodak Scientific). Standard curves, in which the amount of protein was varied systematically, were constructed to establish that we operated within the linear range of the chemiluminescence detection method. In addition, each immunoblot was exposed to autoradiography film multiple times (average 7; minimum 5) for varying duration to make sure we operated in the linear range of the film for each experiment. Digital images, produced by scanning films on a Epson 3200 Scanner (Epson) with Epson Scan Software (Epson), were quantified using GelPro Analyzer 3.1 software. The integrated optical density (IOD) of each immunoreactive band from hippocampal samples relative to baseline measured immediately above and below the band in the same lane, and normalized by the actin or neurofilament band also in the same lane. Group data (eight animals per group) are represented as the mean+/−SEM of the IOD of samples.

NR1 = test: as above; settings: rat, in vivo
Method: as §1

synapsin1 = test: as above; settings: rat, in vivo
Method: as §1

GluR1 = test: as above; assay type: in vivo, rat; settings: rat, in vivo, 6 mg/kg/day
Method: as §1

NR2B = test: as above; assay type: in vivo, rat; settings: rat, in vivo
Method: as §1

[Mg+2] [Mg^++]
effect on NMDA current (NMDAR): had no effect | reduction (attenuation) of NMDA current (NMDAR): ~60% | reduction of EPSCNMDA amplitude (NMDAR): 50% | size of outward EPSCNMDA (NMDAR): remained relatively unchanged | N/A ratio (GNMDA/GAMPA) [1]: increased significantly | change in EPSCNMDA decay [1]: 2 fold | ifenprodil-sensitivity of EPSCNMDA in treated versus control cultures [1]: much higher than in the controls | increase of quantal charge transfer through NMDARs (QNMDA) [1]: 2.4 fold | increase in CSF [Mg] [2]: approximately 0.13 mM | change of NR2A (NR2A): no significant changes | change of NR1 (NR1): no significant changes | change of synapsin1 (synapsin1): no significant changes | increase in amount of GluR1 (GluR1): approximately 60% | increase in levels of NR2B protein (NR2B): two-fold increase | increase in amount of NR2B (NR2B; 6 mg/kg/day): approximately 60%
